Reference: the Kinase Knowledgebase extract (Sharma et al. 2016)

Tests used:
MAPK14 (human) [1] = target: MAPK14 (human) (UniProt Q16539); assay: Enzyme Assay; conditions: A375; concentration not given here
MAPK14 (human) [2] = target: MAPK14 (human) (UniProt Q16539); assay: Enzyme Assay; conditions: A375; concentration not given here; remark: listed apart in the source

Chain of MAPK14 (human) (Q16539 whole entry, looked up): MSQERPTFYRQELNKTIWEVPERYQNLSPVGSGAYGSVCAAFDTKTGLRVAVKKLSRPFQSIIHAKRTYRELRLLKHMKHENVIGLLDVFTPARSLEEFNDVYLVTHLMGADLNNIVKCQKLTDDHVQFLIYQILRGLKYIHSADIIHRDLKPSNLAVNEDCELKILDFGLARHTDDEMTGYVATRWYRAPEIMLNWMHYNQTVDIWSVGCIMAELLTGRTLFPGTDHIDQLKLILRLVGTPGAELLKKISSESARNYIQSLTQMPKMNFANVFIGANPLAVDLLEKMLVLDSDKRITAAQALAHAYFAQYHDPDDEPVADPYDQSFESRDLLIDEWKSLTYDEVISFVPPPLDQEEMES

| SMILES | activity (MAPK14 (human) [1]) | activity (MAPK14 (human) [2]) |
| --- | --- | --- |
| N#CC(=C(/N)Sc1ccccc1N)/C(C#N)=C(\N)Sc1ccccc1N | 6.32% | 18.9% |
| COc1cccc(-c2cc(=O)c3ccccc3o2)c1N | 25.3% | 34.7% |
